Assay results taken from patent US6558699B2, “High drug load immediate and modified release oral dosage formulations and processes for their manufacture” (SmithKline Beecham Corporation, priority 1997, dated 2003).

Legend:
[1] = Human clinical studies (tolerability and pharmacokinetics); type: in vivo; conditions: for safety and tolerability: human clinical studies, doses up to 800 mg per day
[2] = Hydrate formation during wet granulation (TGA, DSC, XRD); type: physicochemical; conditions: wet granulation with water
Text: (§1) FIGS. 1(A), 2(A) and 3(A) show, respectively, the thermogravimetric analysis (TGA), the differential scanning calorimetric (DSC) thermogram and the powder X-ray diffraction (XRD) pattern of the free base of anhydrous (E)-α-[2-n-butyl-1-[(4-carboxyphenyl)methyl]-1H-imidazol-5-yl]methylene-2-thiophenepropionic acid.
as §1, with “1B-D, 2B-D” for “1(A), 2(A)”, “3B-D” for “3(A)”, “patterns for the granulations” for “pattern”, “acid with different binders and binder-diluent combinations.” for “acid.”
FIGS. 1B, 2B and 3B show, respectively, the thermogravimetric analysis (TGA), the differential scanning calorimetric (DSC) thermogram and the powder X-ray diffraction (XRD) patterns for the granulations of (E)-α-[2-n-butyl-1-[(4-carboxyphenyl)methyl]-1H-imidazol-5-yl]methylene-2-thiophenepropionic acid with Starch 1551 (96/4 eprosartan free base/Starch 1551). […]

[3] = Drug release from enteric-coated modified release tablets and drug solubility at the initiation pH; conditions: pH >4.0 (PVAP), >5.0 (HPMCP), 5.5 (Eudragit)
Text: Tablets of Formulas 1-4 may be optionally provided with an aqueous film coating. Generally, these tablets are coated first with a polymer solution to form a clear film, and then coated with an aqueous polymer solution/suspension to form an opaque, white or colored film. […] In contrast, tablets of Formulas 5-7 are first coated with an aqueous polymer solution to form a clear film (often called seal coat) and then with an aqueous solution/suspension of an enteric polymer such as Eudragit L30D, hydroxypropyl methycellulose acetate phthalate (HPMCP), cellulose acetate phthalate (CAP) or polyvinyl acetate phthalate (PVAP). The weight gains following seal coat and enteric coat are about 3-6% and 4-12% (most preferably 3-4% and 4-6%) respectively. The modified release tablets thus produced release <20% drug in the stomach following the oral administration and rapidly release the drug at higher pHs, depending on the polymer used (for e.g., at a pH >4.0 for PVAP, >5.0 for HPMCP and 5.5 for Eudragit), even though the drug solubility at these initiation pHs is negligible. The water imbibed into the tablets dissolves arginine creating a high pH environment in which Eprosartan dissolves. This high pH also dissolves the film coating, releasing the drug substance to the environment.

Row | hydrate formation during wet granulation [2] | drug solubility at the initiation pHs [3] | SMILES | safety and tolerability [1] | bioavailability ([1]; human, in vivo, oral, read-out: mean absolute bioavailability) [%]
1 | forms a dihydrate | – | CCCCc1ncc(/C=C(\Cc2cccs2)C(=O)O)n1Cc1ccc(C(=O)O)cc1.CS(=O)(=O)O [(E)-α-[2-n-Butyl-1-[(4-carboxyphenyl)-methyl]-1H-imidazol-5-yl]methylene-2-thiophenepropionic acid monomethanesulfonate] | safe and well tolerated | ~13
2 | does not form a hydrate | negligible | CCCCc1ncc(/C=C(\Cc2cccs2)C(=O)O)n1Cc1ccc(C(=O)O)cc1 [Eprosartan, (E)-α-[2-n-Butyl-1-[(4-carboxyphenyl)methyl]-1H-imidazol-5-yl]methylene-2-thiophenepropionic acid] | safe and well tolerated | –
